These results are taken from US20170107531A1, “ISOLATED NUCLEIC ACIDS AND QU[…] LOCI (QTL) FROM S. HA[…] METHODS OF USE THEREOF FOR […] BACTERIAL SPECK DISEASE IN TOMATO AND OTHER PLANTS” (Boyce Thompson Institute, priority 2015, published 2017).

In test [1] the test system is Solyc02g072470 transcript abundance. Kind of test: Solyc02g072470 transcript abundance in leaves after MAMP treatment (qRT-PCR), RG-PtoS. In kind it is in vivo, tomato (Rio Grande RG-PtoS). As for the experimental part:
(§1) Two lateral leaflets on the second leaf of 3-week old tomato plants were syringe-infiltrated with 1 uM FlgII-28 ([…]) (SEQ ID NO. 1) (Cal, et al., 2011) or 10 uM Csp22 ([…]) (SEQ ID NO. 2) (Felix and Boller, 2003) and harvested 6 hrs later. Tissue samples were immediately frozen in liquid nitrogen and kept at −80° C. until use. Six-week-old plants were inoculated with 10^5 colony-forming units (CFU)/mL P. syringae pv. tomato T1 by vacuum infiltration for the visual monitoring of disease symptoms and 10^4 CFU/mL for the measurement of bacterial populations. For each replicate, three leaf discs were collected and combined; each experiment involved replicates from three independent plants.
(§2) Leaf tissue was ground in liquid nitrogen and total RNA was extracted with TRIzol reagent following the manufacturer's instructions (Life Technologies, cat. #15596-018). The concentration of total RNA was determined with a Nanodrop spectrophotometer (Thermo Scientific Co.). RNA (lug) was treated with TURBO DNA-free™ Kit (Life Technologies, cat. AM1907M) and tested for DNA contamination by amplifying SlCBL1 (Solyc12g015870) for 25 cycles; no PCR product was detected. The RNA was then used for reverse transcription PCR (RT-PCR). […] 1 μl and 0.4 μl of cDNA templates were used for RT-PCR and quantitative-RT-PCR (qRT-PCR), respectively. […]
(Quantitative PCR measures a nucleic acid by following its amplification.)

Test [2] has the same test system. In words: Solyc02g072470 transcript abundance in leaves after MAMP treatment (qRT-PCR), LA2109. Type of test: in vivo, Solanum habrochaites accession LA2109. As for the experimental part:
as §1, §2

The subject of test [3] is reactive oxygen species (ROS) in LA2109. The following applies: Veluchamy et al., 2014; cited from earlier work.
Test [4] shares this test system. In words: Reactive oxygen species (ROS) elicitation by MAMP peptides, luminescence-based assay. Type of test: cell-based, Solanum habrochaites accession LA2109. The settings on record: for PTI-eliciting activity of synthetic peptide: FIG. 2D, FIGS. 3C-E, also Cai et al., 2011; for ROS elicitation (relative light units): LA2109, FIG. 3C. As for the experimental part: FIG. 3A-FIG. 3E. […] (FIG. 3A) Bacterial speck disease on leaves of LA2109 four days after inoculation with Pst19 or Pst19ΔavrPtoB. (FIG. 3B) Bacterial populations of Pst19 and Pst19ΔavrPtoB in leaves of LA2109. Error bars indicate standard deviation. Testing the possible response of LA2109 to FlgII-28, effector HopAO1, and coronatine. […] ROS was measured as relative light units using a luminescence-based assay. […] Strain NY-T1 was included as a virulent control. All strains were inoculated at 2×10^5 CFU/mL. (FIG. 3E) Coronatine (1.25 nM) was syringe-infiltrated into leaves of LA2109 and Moneymaker (red arrows). Leaves of LA2109 were not observably more sensitive to this phytotoxin.

Setting [5] is: 10 uM Csp22, 6 hours after treatment.
Setting [6] is: 1 uM FlgII-28, 6 hours after treatment, vs 10 mM MgCl2 mock.

In the case of AVGTVKWFNAEKGFGFITPDDG (Csp22), the “Effect on Solyc02g072470 transcript abundance” value in test [1] (setting [5]) is “no effect”; in test [2] (setting [5]) it was “significantly induced”. Besides, in test [3], the “ROS response to Csp22, LA2109 compared to RG-PtoS” value is on record as “higher ROS response”.
Regarding ESTNILQRMRELAVQSRNDSNSATDREA (FlgII-28), the entries for the “Increase of Solyc02g072470 transcript abundance” value in test [1] (setting [6]) and in test [2] (setting [6]) were 4 fold and 1.5 fold, respectively.
Turning to “FlgII-28 from DC3000: synthetic peptide of the FlgII-28 region of Pst strain DC3000 flagellin (SEQ ID NO: 77) (QTMAIKNANDGMSLAQTAEGALQESTNILQRMRELAVQSRNDSNSATDREALNKEFTAMS; FlgII-28 region)”, in test [4], the “PTI-eliciting activity of synthetic peptide” value is “fully active” and the “ROS elicitation (relative light units)” value was “same level”.
As for “FlgII-28 from NY-T1: FlgII-28 region of NY-T1 flagellin, phenylalanine at position 16 instead of serine (SEQ ID NO: 76) (QTMAIKNANDGMSLAQTAEGALQESTNILQRMRELAVQFRNDSNSSTDRDALNKEFTAMS; FlgII-28 region)”, the “ROS elicitation (relative light units)” value in test [4] was “inactive”.
With “FlgII-28 from T1: synthetic peptide of the FlgII-28 region of Pst strain T1 flagellin (SEQ ID NO: 75) (QTMAIKNANDGMSLAQTAEGALQESTNILQRMRELAVQSRNDSNSSTDRDALNKEFTAMS; FlgII-28 region)”, in test [4], the “PTI-eliciting activity of synthetic peptide” value is on record as “fully active” and the “ROS elicitation (relative light units)” value is reported as “same level”.
